# In US12673918B2, “Small molecule RPN13 inhibitors with antitumor properties” (The Johns Hopkins University, priority 2019, dated 2026):
# How the values were obtained:
# [1] = system: SKOV3 cells; assay: XTT cytotoxicity assay, SKOV3; assay type: cell-based, human; details: Table 1; XTT assay; read-out: IC50 SKOV3
# Description: (§1) The impact of substituents of the aromatic ring on the potency of molecules was also examined. The presence of either an electron withdrawing group (EWG) or an electron donating group (EDG) influences the reactivity of a Michael acceptor towards the target protein but can also impact specificity/selectivity.
# [2] = system: HeLa cells; assay: XTT cytotoxicity assay, HeLa; assay type: cell-based, human; details: Table 1; XTT assay; read-out: IC50 HeLa
# Description: as §1
SMILES,IC50 [1] [µM],IC50 [2] [µM]
O=C1C(=Cc2ccc(O)c(O)c2)CNCC1=Cc1ccc(O)c(O)c1 [DHBC],0.788,0.667
CC(N)C(=O)N1CC(=Cc2ccc(Cl)c(Cl)c2)C(=O)C(=Cc2ccc(Cl)c(Cl)c2)C1 (stereo not shown) [RA7-Ala],0.092,0.068
NCC(=O)N1CC(=Cc2ccc(Cl)c(Cl)c2)C(=O)C(=Cc2ccc(Cl)c(Cl)c2)C1 [RA7-Gly],0.078,0.065
CCC(C)C(NC(=O)C(F)(F)F)C(=O)N1CC(=Cc2ccc(Cl)c(Cl)c2)C(=O)C(=Cc2ccc(Cl)c(Cl)c2)C1 (stereo not shown) [RA7-IleC],0.077,0.061
CCC(C)C(N)C(=O)N1CC(=Cc2ccc(Cl)c(Cl)c2)C(=O)C(=Cc2ccc(Cl)c(Cl)c2)C1 (stereo not shown) [RA7-Ile],0.101,0.072
CC(C)C(N)C(=O)N1CC(=Cc2ccc(Cl)c(Cl)c2)C(=O)C(=Cc2ccc(Cl)c(Cl)c2)C1 (stereo not shown) [RA7-Val],0.072,0.064
O=C1C(=Cc2ccc(Cl)c(Cl)c2)CNCC1=Cc1ccc(Cl)c(Cl)c1 [RA7],0.654,0.532
CC(=O)NC(Cc1ccccc1)C(=O)N1CC(=Cc2ccc([N+](=O)[O-])cc2)C(=O)C(=Cc2ccc([N+](=O)[O-])cc2)C1 (stereo not shown) [RA183Ac],0.071,0.056
C=CC(=O)NC(Cc1ccccc1)C(=O)N1CC(=Cc2ccc([N+](=O)[O-])cc2)C(=O)C(=Cc2ccc([N+](=O)[O-])cc2)C1 (stereo not shown) [RA183Acr],0.064,0.049
O=C1C(=Cc2ccc([N+](=O)[O-])cc2)CN(C(=O)C(Cc2ccccc2)NC(=O)C(F)(F)F)CC1=Cc1ccc([N+](=O)[O-])cc1 (stereo not shown) [RA183CF3],0.079,0.045
C=CC(=O)N[C@@H](Cc1ccccc1)C(=O)N1C/C(=C\c2ccc(Cl)c(Cl)c2)C(=O)/C(=C/c2ccc(Cl)c(Cl)c2)C1 [RA190 ACR],0.062,0.042
NCCCCCC(=O)NC(Cc1ccccc1)C(=O)N1CC(=Cc2ccc(Cl)c(Cl)c2)C(=O)C(=Cc2ccc(Cl)c(Cl)c2)C1 (stereo not shown) [RA190AHA],0.088,0.062
CC(=O)N[C@@H](Cc1ccccc1)C(=O)N1C/C(=C\c2ccc(Cl)c(Cl)c2)C(=O)/C(=C/c2ccc(Cl)c(Cl)c2)C1 [RA190Ac],0.068,0.046
"O=C(CCCC[C@@H]1SCC2NC(=O)NC21)N[C@@H](Cc1ccccc1)C(=O)N1C/C(=C\c2ccc(Cl)c(Cl)c2)C(=O)/C(=C/c2ccc(Cl)c(Cl)c2)C1 (stereo partly shown) [RA190B, reference compound]",–,0.346
O=C1C(=Cc2ccc(Cl)c(Cl)c2)CN(C(=O)C(Cc2ccccc2)NC(=O)c2ccccc2)CC1=Cc1ccc(Cl)c(Cl)c1 (stereo not shown) [RA190Bn],0.121,0.086
N#CCC(=O)NC(Cc1ccccc1)C(=O)N1CC(=Cc2ccc(Cl)c(Cl)c2)C(=O)C(=Cc2ccc(Cl)c(Cl)c2)C1 (stereo not shown) [RA190CA],0.084,0.051
O=C1C(=Cc2ccc(Cl)c(Cl)c2)CN(C(=O)C(Cc2ccccc2)NS(=O)(=O)c2ccc(-c3ccno3)s2)CC1=Cc1ccc(Cl)c(Cl)c1 (stereo not shown) [RA190IAS],0.342,0.211
CS(=O)(=O)NC(Cc1ccccc1)C(=O)N1CC(=Cc2ccc(Cl)c(Cl)c2)C(=O)C(=Cc2ccc(Cl)c(Cl)c2)C1 (stereo not shown) [RA190MS],0.133,0.086
CNC(=O)NC(Cc1ccccc1)C(=O)N1CC(=Cc2ccc(Cl)c(Cl)c2)C(=O)C(=Cc2ccc(Cl)c(Cl)c2)C1 (stereo not shown) [RA190MU],0.239,0.141
Cn1cncc1S(=O)(=O)NC(Cc1ccccc1)C(=O)N1CC(=Cc2ccc(Cl)c(Cl)c2)C(=O)C(=Cc2ccc(Cl)c(Cl)c2)C1 (stereo not shown) [RA190NMS],0.094,0.078
O=C1C(=Cc2ccc(Cl)c(Cl)c2)CN(C(=O)C(Cc2ccccc2)NC(=O)c2ccccn2)CC1=Cc1ccc(Cl)c(Cl)c1 (stereo not shown) [RA190P],0.064,0.055
O=C1C(=Cc2ccc(Cl)c(Cl)c2)CN(C(=O)C(Cc2ccccc2)NC(=O)c2cnccn2)CC1=Cc1ccc(Cl)c(Cl)c1 (stereo not shown) [RA190PyC],0.084,0.065
